Measurements taken from patent publication US20240173374A1, “LIPOSOMAL FORMULATIONS OF BORONIC ACID CONTAINING ACTIVE AGENTS” (Ohio State Innovation Foundation, priority 2021, published 2024).

Tests used:
[1] = BTZ / boronic acid drug loading into liposomes (UV absorption or HPLC); assay type: physicochemical; settings: tiron-based liposomes, same drug loading protocol
Procedure: Remote loading of BTZ into liposomes encapsulating calcium ascorbate/calcium acetate. Lipids (DSPC/Chol/mPEG-DSPE 60:35:5 mole/mole) were dissolved in chloroform, dried into a thin film on a round-bottom flask and hydrated in 100 mM calcium ascorbate/50 mM calcium acetate (pH 8). The resulting liposomes were subjected to 5 cycles of freezing and thawing and extrusion through a 100-nm pore size polycarbonate membrane in a Lipex extruder at 65 degree. […] External buffer of the liposomes was exchanged to 130 mM NaCl/10 mM histidine (pH 6) by passing through a Sepharose CL-4B column. […] BTZ was dissolved in a small volume of DMSO and added to the liposomes and incubated under stirring at 20-60 degrees for 10-60 min (e.g., 30 min at 50 degree) to facilitate remote loading. BTZ diffuses into the liposomes and forms a complex with ascorbic acid (BTZ-ASC complex), which is negatively charged and partially precipitates intraliposome with calcium, resulting in stable encapsulation of the BTZ. Finally, unencapsulated BTZ was removed from the liposomes by passing through a Sepharose CL-4B column. BTZ concentration in the L-BTZ was determined by UV absorption or by HPLC. […]
Remote loading of BTZ into liposomes containing ascorbyl palmitate (ASC-C16) and encapsulating calcium acetate. […] BTZ concentration in the L-BTZ was determined by UV absorption or by HPLC. […]

[2] = clinical trial for SLE; cited from earlier work
[3] = tested on: NCI-H929 multiple myeloma; experiment: Antitumor activity in NCI-H929 multiple myeloma subcutaneous murine xenograft model; assay type: in vivo, mice; settings: FIG. 3B
Excerpt: (3A) anti-tumor effect, (3B) body weight loss, and (3C) survival curves result in vivo.

[4] = AML trial; cited from earlier work
[5] = Plasma pharmacokinetics of L-BTZ and Velcade in rats after single dose; assay type: in vivo; settings: 0.6 mg/kg, 5 ul/g, plasma BTZ by LC-MS
Procedure: Plasma concentrations were determined by LC-MS. Compared to Velcade, the circulation time L-BTZ was much longer, which subsequently enhances the therapeutic effect and half-life time in vivo.

[6] = tested on: AML murine model; settings: cited from earlier work

With `CC(C)C[C@H](NC(=O)[C@@H](NC(=O)c1cccc(-c2ccccc2)n1)[C@@H](C)O)B(O)O` [delanzomib] the drug loading [1] was “High drug loading”.

For `CC(C)C[C@H](NC(=O)CNC(=O)c1cc(Cl)ccc1Cl)B(O)O` [ixazomib], the drug loading [1] was “High drug loading”.

For `CC(C)C[C@H](NC(=O)[C@H](Cc1ccccc1)NC(=O)c1cnccn1)B(O)O` [free BTZ, Bortezomib], the “dropped out due to side effects” value [2] is listed as 7/12, the “body weight loss during treatment” value [3] is listed as “no significant body weight loss” and the “drop out due to neurotoxicity” value [4] is listed as 4/7. It also gave a CLss_F ([5]; i.v.) of 18.9 mL/min/kg, a Vz_F ([5]; i.v.) of 54.22 L/kg and an AUC(0-inf) ([5]; rat, iv) of 864 ng·h/mL. For the same compound, the AUC(0-t) ([5]; rat, iv) was 322 ng·h/mL, the Cmax ([5]; rat, iv) was 45.4 ng/mL and the Tmax ([5]; rat, iv) was 0.25 h. For the same compound, the half-life ([5]; rat, iv) was 33.1 h and the “reaching effective dose (limited by toxicity)” value [6] was “cannot reach effective dose”.
